Key:
SARS-CoV = conditions: read-out: SARS-CoV antiviral EC50; VeroE6 cells; cited from earlier work
SARS-CoV-2 = test: Antiviral activity, quantitative VeroE6 cell-based assay with RNA-qPCR; conditions: VeroE6 cells, EC50 ratio versus compound 1
SARS-CoV-2 3CLpro = SARS-CoV-2 3CLpro (Severe acute respiratory syndrome coronavirus 2, UniProt P0DTD1); type: biochemical
SARS-CoV 3CLpro = SARS-CoV 3CLpro (Severe acute respiratory syndrome coronavirus, UniProt P0C6X7); test: biochemical

| SMILES | fold reduction in antiviral activity compared to 1 (SARS-CoV-2) [fold] | IC50 (SARS-CoV 3CLpro) [nM] | further results |
| --- | --- | --- | --- |
| O=C(Oc1cncc(Cl)c1)c1cccc2[nH]ccc12 [Compound 1, 5-chloropyridin-3-yl 1H-indole-4-carboxylate] | – | – | EC50 (SARS-CoV): 6900 nM |
| C=CCn1ccc2c(C(=O)Oc3cncc(Cl)c3)cccc21 [Compound 7d, 5-chloropyridin-3-yl 1-allyl-1H-indole-4-carboxylate] | ~5 | – | fold improvement in inhibitory potency over 1 (SARS-CoV-2 3CLpro; versus compound 1): over 5 fold |
| O=C(Oc1cncc(Cl)c1)c1cccc2c1CCN2 [Compound 2, 5-chloropyridin-3-yl indoline-4-carboxylate] | 5 | 190 | – |
| C=CCc1cn(CC=C)c2cccc(C(=O)Oc3cncc(Cl)c3)c12 [Compound 7e, 5-chloropyridin-3-yl 1,3-diallyl-1H-indole-4-carboxylate] | – | – | fold reduction in enzyme inhibitory activity (SARS-CoV-2 3CLpro; bis-allyl 7e versus 7d): 5 fold |
| O=C(Oc1cncc(Cl)c1)c1ccc2[nH]ccc2c1 [Compound 7a, 5-chloropyridin-3-yl 1H-indole-5-carboxylate] | – | 405 | – |
